Laboratory results taken from patent US12516043B2, “Stiripentol derivative and use thereof” (National University Corporation Okayama University, priority 2020, dated 2026).

Experiments:
[1] = Solubility in lipid (choice of vehicle); type: physicochemical
[2] = target: human LDH1 (tetramer of LDHB) (Homo sapiens, UniProt P07195); assay: Lactate dehydrogenase inhibitory action, enzymatic reaction plus chromogenic reaction (LDH1); type: biochemical; conditions: FIG. 1B, each n=3
Experimental: (§1) Evaluation of Lactate Dehydrogenase Inhibitory Action (Compounds Nos. 1 to 10, FIGS. 1 to 5):
(§2) Lactate dehydrogenase catalyzes production of lactic acid and NAD from pyruvic acid and NADH. […] In order to evaluate the enzymatic activity of lactate dehydrogenase, experiments were carried out using an evaluation system (Patent Literature 1, Non-Patent Literature 9) consisting of an enzymatic reaction (step 1) and a chromogenic reaction (step 2). In the enzymatic reaction of step 1, sodium pyruvate (100 μM), NADH (100 μM) and lactate dehydrogenase (human LDH1 or LDH5) were added, further an inhibitor (Compounds Nos. 1 to 10) different in concentration was added. The mixture was subjected to a reaction carried out in the presence of a 100 mM sodium phosphate buffer (pH 7.3, 37° C.) for 60 minutes (200 μL/well). In this stage, absorbance of the background at 492 nm was measured by a plate reader (absorbance before chromogenic reaction). […] INT changed into INT formazan by the action of diaphorase in the presence of NADH, and absorbance of INT formazan at 492 nm was measured by a plate reader (absorbance after chromogenic reaction). […] Then, the absorbance before chromogenic reaction was subtracted from the absorbance after chromogenic reaction. The value obtained by the above calculation was regarded as an “absorbance change value (ΔA)”. […]

[3] = Pharmacokinetic evaluation by oral administration to a mouse (HPLC/MS of blood plasma); type: in vivo, ICR mice; conditions: 50 mg/kg oral, blood plasma thirty minutes later; for in vivo metabolic stability: HPLC (MS for No. 1)
Experimental: Pharmacokinetic evaluation (compounds Nos. 1, 2, 4 and 9, FIGS. 6 to 10) by oral administration to a mouse:
For pharmacokinetic study, 6-7 week-old ICR mice were used in experiments. […] A vehicle or each of the compounds (50 mg/kg) were respectively orally administered to a mouse by a disposable sonde. Thirty minutes later, each mouse was decapitated for sampling their blood. Heparin sodium (10 μg/mL) was added to the blood as an anticoagulant. After each blood sample was centrifuged for 15 minutes (1,000 g, 4° C.), the supernatant was obtained as a blood plasma. Subsequently, to extract a compound, ethyl acetate was added to the obtained blood plasma, air-dried with nitrogen gas, and dissolved again with acetonitrile. The sample pretreated in this manner was subjected to the following analysis (HPLC, MS). In performing the HPLC analysis, constituents of the blood plasma were separated by the HPLC system (manufactured by JASCO Corporation) using a C18 reverse-phase column, at a flow rate of 1.0 mL/min. For analysis of the compound No. 1, a mobile phase consisting of acetonitrile (80%) and water (20%) was used, whereas a mobile phase consisting of acetonitrile (70%) and water (30%) was used for analysis of Compounds No. 2, No. 4 and No. 9. Individual compounds were detected by a UV detector at 295 nm. The data were obtained/analyzed by a software, ChromNAV (manufactured by JASCO Corporation). To identify an unchanged compound within the blood plasma constituents, the compound itself was directly analyzed as a standard substance by HPLC and the retention times of these compounds were compared. In the MS analysis, LC-MS/MS system (Agilent 1200 HPLC-Chip and 6520 Accurate-Mass Q-TOF), manufactured by Agilent Technologies, was used. The pretreated sample was allowed to adsorb onto a C18 chip by use of a mobile phase consisting of acetonitrile (25%) and water (75%) containing formic acid (0.1%), and thereafter, the blood plasma constituents were separated by a mobile phase consisting of acetonitrile (60%) and water (40%) containing formic acid (0.1%). The MS spectrum of the blood plasma constituents separated was detected (obtained) by a mass spectrometer, and data was obtained/analyzed by a software, MassHunter Qualitative Analysis (Agilent Technologies).

[4] = target: human LDH5 (tetramer of LDHA) (Homo sapiens, UniProt P00338); assay: Lactate dehydrogenase inhibitory action, enzymatic reaction plus chromogenic reaction (LDH5); type: biochemical; conditions: FIG. 1A
Experimental: as §1, §2

[5] = test system: epileptic seizures in hippocampal sclerosis model mouse; assay: Pharmacological effect evaluation using a hippocampal sclerosis model mouse; type: in vivo, ICR mice
Experimental: Pharmacological Effect Evaluation by Using a Hippocampal Sclerosis Model Mouse (Compound No. 2, FIG. 11):
Hippocampal sclerosis model mice for use in evaluating anti-epileptic action were prepared according to the literatures already published (Non-Patent Literatures 3 and 13). First, 6-7 week-old ICR mice were each anesthetized with a mixed solution of ketamine (100 mg/kg) and xylazine (40 mg/kg) and fixed to a stereotaxic apparatus. Subsequently, the scalp was removed and a U-shaped plastic frame required for recording electroencephalography in vivo was attached to the head. Then, a small amount of kainic acid (0.8 nmol, 40 nL) for inducing epilepsy was injected to the dorsal hippocampus (1.6 mm posterior to the bregma, 1.6 mm laterally from the center line, 1.4 mm (depth) from the brain surface) via a micro glass electrode and a metal electrode (diameter 200 μm) for measuring epileptic seizures was embedded in the proximity of the injection site of kainic acid. A reference electrode was installed in the cerebellum. Three weeks after the surgery, epileptic seizures spontaneously generated from the hippocampus were measured to evaluate anti-epilepsy action. Each mouse head was immobilized via a U-shaped frame, brain waves of the hippocampus was recorded through an analog filter of 0.5-30 Hz and digitized by an AD converter at a sampling rate of 1 kHz. After baseline brain wave was measured for one hour, a vehicle or Compound No. 2 was orally administered to each mouse by a disposable sonde, and their brain waves were recorded for further 3 hours. Epileptic seizures were analyzed by Igor Pro (WaveMetrics) and epileptic seizures lasting for 8 seconds or more were counted. Statistical analysis was carried out by SigmaPlot (Systat Software).

lactate dehydrogenase = conditions: Non-Patent Literature 3; cited from earlier work

Chain of human LDH1 (tetramer of LDHB) (P07195 whole entry): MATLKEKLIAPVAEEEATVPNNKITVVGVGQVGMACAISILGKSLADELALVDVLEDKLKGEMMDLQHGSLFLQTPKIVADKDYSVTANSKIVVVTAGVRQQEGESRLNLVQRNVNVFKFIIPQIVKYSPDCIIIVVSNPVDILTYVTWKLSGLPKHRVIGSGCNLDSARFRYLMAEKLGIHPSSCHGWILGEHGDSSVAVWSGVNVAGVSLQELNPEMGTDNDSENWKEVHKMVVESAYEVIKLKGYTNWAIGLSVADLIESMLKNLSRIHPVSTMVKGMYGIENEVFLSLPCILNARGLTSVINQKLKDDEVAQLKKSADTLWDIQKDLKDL

SMILES	solubility in lipid [1]	unchanged compound in the blood after oral administration [3]	in vivo metabolic stability [3]	concentration at which inhibitory activity against LDHA was exerted ([4]; n=3)	inhibitory activity against LDHB (in words) [2]	epileptic seizure in the hippocampus ([5]; 150 mg/kg oral, 2.5 hours after administration, FIG. 11B)	number of seizures, dose dependency versus vehicle ([5]; dose of 50 mg/kg oral, 2-3 hours after administration, FIG. 11D, n=11)	number of spontaneous epileptic seizures per hour versus baseline ([5]; oral, one hour after the administration, FIG. 11C, n=10)	inhibitory activity against LDHA (in words) ([4]; n=3, compared with compound No. 1 (5 μM))	inhibitory action against lactate dehydrogenase (lactate dehydrogenase)
O=C(/C=C/c1ccc2c(c1)OCO2)c1ccc(-c2ccccc2)cc1 [Compound No. 1, reference compound]	highly soluble in lipid	quickly disappears	low	5 µM	almost the same strong inhibitory activity					
OC(/C=C/c1ccc2c(c1)OCO2)c1ccc(-c2ccc(F)cc2)cc1 (centres unmarked) [Compound No. 4]	highly soluble in lipid	maintained	high							
CC(C)(C)C(O)/C=C/c1ccc2c(c1)OCO2 (centres unmarked) [stiripentol]										weak

Further lines, with some results ahead:

solubility in lipid [1]	unchanged compound in the blood after oral administration [3]	in vivo metabolic stability [3]	concentration at which inhibitory activity against LDHA was exerted ([4]; n=3)	SMILES	inhibitory activity against LDHB (in words) [2]	epileptic seizure in the hippocampus ([5]; 150 mg/kg oral, 2.5 hours after administration, FIG. 11B)	number of seizures, dose dependency versus vehicle ([5]; dose of 50 mg/kg oral, 2-3 hours after administration, FIG. 11D, n=11)	number of spontaneous epileptic seizures per hour versus baseline ([5]; oral, one hour after the administration, FIG. 11C, n=10)	inhibitory activity against LDHA (in words) ([4]; n=3, compared with compound No. 1 (5 μM))	inhibitory action against lactate dehydrogenase (lactate dehydrogenase)
highly soluble in lipid	maintained	high		OC(/C=C/c1ccc2c(c1)OCO2)c1ccc(-c2ccccc2)cc1 (centres unmarked) [Compound No. 2]	almost the same strong inhibitory activity	suppressed	significantly decreases	significant decrease	exert an inhibitory activity at the same concentration	
highly soluble in lipid	maintained	high		OC(/C=C/c1ccc2c(c1)OCO2)c1ccc(-c2ccccc2)cc1F (centres unmarked) [Compound No. 9]						
